Assays:
[1] = tested on: Staphylococcus aureus; experiment: Antimicrobial activity against clinical isolate Staphylococcus aureus CCM 451608 after 48 hrs; assay type: functional; conditions: CCM 451608, 48 h
[2] = tested on: Staphylococcus epidermidis; experiment: Antimicrobial activity against clinical isolate Staphylococcus epidermidis H 696608 after 24 hrs; assay type: functional; conditions: H 696608, 24 h
[3] = tested on: Escherichia coli; experiment: Antimicrobial activity against clinical isolate Escherichia coli CCM 4517 after 24 hrs; assay type: functional; conditions: CCM 4517, 24 h
[4] = tested on: Pichia kudriavzevii; experiment: Antimicrobial activity against Candida krusei E28 after 48 hrs by spectrophotometry; assay type: functional; conditions: E28, 48 h
[5] = tested on: Pichia kudriavzevii; experiment: Antimicrobial activity against Candida krusei E28 after 24 hrs by spectrophotometry; assay type: functional; conditions: E28, 24 h
[6] = tested on: Aspergillus fumigatus; experiment: Antimicrobial activity against Aspergillus fumigatus 231 after 24 hrs by spectrophotometry; assay type: functional; conditions: Aspergillus fumigatus, 231, 24 h
[7] = tested on: Candida albicans; experiment: Antimicrobial activity against Candida albicans ATCC 44859 after 24 hrs by spectrophotometry; assay type: functional; conditions: ATCC 44859, 24 h
[8] = tested on: Staphylococcus epidermidis; experiment: Antimicrobial activity against clinical isolate Staphylococcus epidermidis H 696608 after 48 hrs; assay type: functional; conditions: H 696608, 48 h
[9] = Cytotoxicity against CHOK1 cells after 24 hrs by MTT assay; assay type: cell-based; conditions: Cricetulus griseus, CHO-K1, 24 h
[10] = tested on: Candida tropicalis; experiment: Antimicrobial activity against Candida tropicalis 156 after 24 hrs by spectrophotometry; assay type: functional; conditions: Candida tropicalis, 156, 24 h
[11] = tested on: Nakaseomyces glabratus; experiment: Antimicrobial activity against Candida glabrata 20/I after 24 hrs by spectrophotometry; assay type: functional
[12] = tested on: Trichophyton mentagrophytes; experiment: Antimicrobial activity against Trichophyton mentagrophytes 445 after 120 hrs by spectrophotometry; assay type: functional; conditions: Trichophyton mentagrophytes, 445, 120 h
[13] = tested on: Enterococcus sp.; experiment: Antimicrobial activity against clinical isolate Enterococcus sp. J 1436508 after 24 hrs; assay type: functional; conditions: J 1436508, 24 h
[14] = tested on: Pseudomonas aeruginosa; experiment: Antimicrobial activity against clinical isolate Pseudomonas aeruginosa CCM 1961 after 120 hrs; assay type: functional; conditions: CCM 1961, 120 h
[15] = tested on: Trichosporon asahii; experiment: Antimicrobial activity against Trichosporon asahii 1188 after 24 hrs by spectrophotometry; assay type: functional; conditions: Trichosporon asahii, 1188, 24 h
[16] = tested on: Pseudomonas aeruginosa; experiment: Antimicrobial activity against clinical isolate Pseudomonas aeruginosa CCM 1961 after 72 hrs; assay type: functional; conditions: CCM 1961, 72 h
[17] = tested on: Staphylococcus aureus; experiment: Antimicrobial activity against clinical isolate methicillin-resistant Staphylococcus aureus H 599608 after 24 hrs; assay type: functional; conditions: H 599608, 24 h
[18] = tested on: Staphylococcus aureus; experiment: Antimicrobial activity against clinical isolate methicillin-resistant Staphylococcus aureus H 599608 after 48 hrs; assay type: functional; conditions: H 599608, 48 h
[19] = tested on: Candida albicans; experiment: Antimicrobial activity against Candida albicans ATCC 44859 after 48 hrs by spectrophotometry; assay type: functional; conditions: ATCC 44859, 48 h
[20] = tested on: Lichtheimia corymbifera; experiment: Antimicrobial activity against Absidia corymbifera 272 after 48 hrs by spectrophotometry; assay type: functional; conditions: Lichtheimia corymbifera, 272, 48 h
[21] = tested on: Klebsiella pneumoniae; experiment: Antimicrobial activity against clinical isolate ESBL-Klebsiella pneumoniae J 1436808 after 24 hrs; assay type: functional; conditions: J 1436808, 24 h
[22] = tested on: Escherichia coli; experiment: Antimicrobial activity against clinical isolate Escherichia coli CCM 4517 after 48 hrs; assay type: functional; conditions: CCM 4517, 48 h
[23] = tested on: Trichosporon asahii; experiment: Antimicrobial activity against Trichosporon asahii 1188 after 48 hrs by spectrophotometry; assay type: functional; conditions: Trichosporon asahii, 1188, 48 h
[24] = tested on: Staphylococcus aureus; experiment: Antimicrobial activity against clinical isolate Staphylococcus aureus CCM 451608 after 24 hrs; assay type: functional; conditions: CCM 451608, 24 h
[25] = tested on: Enterococcus sp.; experiment: Antimicrobial activity against clinical isolate Enterococcus sp. J 1436508 after 48 hrs; assay type: functional; conditions: J 1436508, 48 h
[26] = tested on: Klebsiella pneumoniae; experiment: Antimicrobial activity against clinical isolate Klebsiella pneumoniae D 1175008 after 24 hrs; assay type: functional; conditions: D 1175008, 24 h
[27] = tested on: Nakaseomyces glabratus; experiment: Antimicrobial activity against Candida glabrata 20/I after 48 hrs by spectrophotometry; assay type: functional
[28] = tested on: Candida tropicalis; experiment: Antimicrobial activity against Candida tropicalis 156 after 48 hrs by spectrophotometry; assay type: functional; conditions: Candida tropicalis, 156, 48 h
[29] = tested on: Klebsiella pneumoniae; experiment: Antimicrobial activity against clinical isolate ESBL-Klebsiella pneumoniae J 1436808 after 48 hrs; assay type: functional; conditions: J 1436808, 48 h
[30] = tested on: Klebsiella pneumoniae; experiment: Antimicrobial activity against clinical isolate Klebsiella pneumoniae D 1175008 after 48 hrs; assay type: functional; conditions: D 1175008, 48 h
[31] = tested on: Aspergillus fumigatus; experiment: Antimicrobial activity against Aspergillus fumigatus 231 after 48 hrs by spectrophotometry; assay type: functional; conditions: Aspergillus fumigatus, 231, 48 h
[32] = tested on: Trichophyton mentagrophytes; experiment: Antimicrobial activity against Trichophyton mentagrophytes 445 after 72 hrs by spectrophotometry; assay type: functional; conditions: Trichophyton mentagrophytes, 445, 72 h
[33] = tested on: Lichtheimia corymbifera; experiment: Antimicrobial activity against Absidia corymbifera 272 after 24 hrs by spectrophotometry; assay type: functional; conditions: Lichtheimia corymbifera, 272, 24 h

SMILES: CCCCCCCCCCCCCC[n+]1ccc2ccccc2c1
- MBC [1]: 1 µM
- MIC [1]: 0.5 µM
- MIC [2]: 0.5 µM
- MIC [3]: 2 µM
- MFC [4]: 1 µM
- MIC [4]: 0.5 µM
- MIC [5]: 0.5 µM
- MIC [6]: 7.8 µM
- MIC [7]: 0.5 µM
- MBC [8]: 1 µM
- MIC [8]: 0.5 µM
- IC50 [9]: 9 µM
- MIC [10]: 0.5 µM
- MIC [11]: 0.5 µM
- MFC [12]: 16 µM
- MIC [12]: 3.9 µM
- MIC [13]: 0.5 µM
- MBC [14]: 63 µM
- MIC [14]: 63 µM
- MIC [15]: 3.9 µM
- MIC [16]: 63 µM
- MIC [17]: 0.5 µM
- MBC [18]: 1 µM
- MIC [18]: 0.5 µM
- MFC [19]: 1 µM
- MIC [19]: 0.5 µM
- MFC [20]: 250 µM
- MIC [20]: 31 µM
- MIC [21]: 31 µM
- MBC [22]: 3.9 µM
- MIC [22]: 2 µM
- MFC [23]: 3.9 µM
- MIC [23]: 3.9 µM
- MIC [24]: 0.5 µM
- MBC [25]: 3.9 µM
- MIC [25]: 0.5 µM
- MIC [26]: 3.9 µM
- MFC [27]: 3.9 µM
- MIC [27]: 0.5 µM
- MFC [28]: 1 µM
- MIC [28]: 0.5 µM
- MBC [29]: 31 µM
- MIC [29]: 31 µM
- MBC [30]: 3.9 µM
- MIC [30]: 3.9 µM
- MFC [31]: 7.8 µM
- MIC [31]: 7.8 µM
- MIC [32]: 3.9 µM
- MIC [33]: 31 µM

SMILES: CCCCCCCCCCCC[n+]1ccc2c(O)cccc2c1
- MBC [1]: 2 µM
- MIC [1]: 1 µM
- MIC [2]: 3.9 µM
- MIC [3]: 250 µM
- MFC [4]: 7.8 µM
- MIC [4]: 7.8 µM
- MIC [5]: 7.8 µM
- MIC [6]: 31 µM
- MIC [7]: 63 µM
- MBC [8]: 3.9 µM
- MIC [8]: 3.9 µM
- IC50 [9]: 36 µM
- MIC [10]: 31 µM
- MIC [11]: 3.9 µM
- MFC [12]: 63 µM
- MIC [12]: 31 µM
- MIC [13]: 63 µM
- MBC [14]: 63 µM
- MIC [14]: 63 µM
- MIC [15]: 31 µM
- MIC [16]: 63 µM
- MIC [17]: 3.9 µM
- MBC [18]: 3.9 µM
- MIC [18]: 3.9 µM
- MFC [19]: 63 µM
- MIC [19]: 63 µM
- MFC [20]: 250 µM
- MIC [20]: 125 µM
- MIC [21]: 63 µM
- MBC [22]: 250 µM
- MIC [22]: 250 µM
- MFC [23]: 31 µM
- MIC [23]: 31 µM
- MIC [24]: 1 µM
- MBC [25]: 63 µM
- MIC [25]: 63 µM
- MIC [26]: 63 µM
- MFC [27]: 7.8 µM
- MIC [27]: 3.9 µM
- MFC [28]: 63 µM
- MIC [28]: 31 µM
- MBC [29]: 63 µM
- MIC [29]: 63 µM
- MBC [30]: 63 µM
- MIC [30]: 63 µM
- MFC [31]: 250 µM
- MIC [31]: 31 µM
- MIC [32]: 31 µM
- MIC [33]: 125 µM
